Data as given in paper PMC11106707, “Design of potent tyrosinase inhibiting N-arylated-4-yl-benzamides bearing 2-aminothiazole-triazole bi-heterocycles: mechanistic insight through enzyme inhibition, kinetics and computational studies” (RSC Advances, 2024).

Biological target: T1, mushroom tyrosinase (Agaricus bisporus, UniProt C7FF04)
T1 construct: purchased Sigma Chemical, USA
Experiment: Kinetic analysis of the inhibition of tyrosinase (Lineweaver–Burk / secondary plots)
Format: biochemical
Conditions: Lineweaver–Burk plots; Vmax decreased, Km remained the same
Description: To understand the inhibitory mechanism of synthetic compounds on the tyrosinase inhibition, kinetic study was performed. […] The kinetic results of the enzyme by the Lineweaver–Burk plot of 1/V versus 1/[S] in the presence of different inhibitor concentrations furnished a series of straight lines (Fig. 13A).
Fig. 13 Lineweaver–Burk plots for inhibition of tyrosinase in the presence of compound 9c. (A) Concentrations of 9c were 0.00, 0.004, 0.008, 0.016 and 0.032 μM, respectively. Substrate L-DOPA concentrations were 0.125, 0.25, 0.5, 1 and 2 mM, respectively. (B) The insets represent the plot of the slope versus inhibitor 9c concentrations to determine inhibition constant. The lines were drawn using linear least squares fit.
A series of experiments were performed to determine the inhibition kinetics of 9c by following the already reported methods.[41,42] The inhibitor concentrations for 9c were 0.00, 0.004, 0.008, 0.016 and 0.032 μM. Substrate L-DOPA concentrations were between 0.125 and 2 mM in all kinetic studies. Pre-incubation and measurement time was the same as discussed in the mushroom tyrosinase inhibition assay protocol. Maximal initial velocity was determined from the initial linear portion of absorbance up to five minutes after addition of enzyme at a 30 s interval. […]

T1 sequence (C7FF04 1-392): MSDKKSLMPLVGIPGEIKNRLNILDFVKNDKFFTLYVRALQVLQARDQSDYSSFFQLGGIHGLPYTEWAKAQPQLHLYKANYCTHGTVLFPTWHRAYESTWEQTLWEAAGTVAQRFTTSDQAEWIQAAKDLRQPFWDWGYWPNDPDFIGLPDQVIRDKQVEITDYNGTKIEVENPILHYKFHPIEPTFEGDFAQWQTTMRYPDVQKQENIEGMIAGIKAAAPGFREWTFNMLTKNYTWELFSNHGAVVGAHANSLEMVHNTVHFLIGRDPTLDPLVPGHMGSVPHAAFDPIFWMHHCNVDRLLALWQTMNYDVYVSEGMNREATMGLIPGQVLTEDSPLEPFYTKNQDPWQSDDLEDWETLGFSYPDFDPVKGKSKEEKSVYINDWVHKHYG

With `Cc1cccc(C)c1NC(=O)c1ccc(CSc2nnc(Cc3csc(N)n3)n2-c2ccccc2)cc1` [9c, 4-[({5-[(2-Amino-1,3-thiazol-4-yl)methyl]-4-phenyl-4H-1,2,4-triazol-3-yl}sulfanyl)methyl]-N-(2,6-dimethylphenyl)benzamide] the Inhibition type was “non-competitively”.

Same assay, conditions: calculated from Dixon plots; substrate L-DOPA 0.125–2 mM; read-out: Inhibition constant Ki

In the case of `Cc1cccc(C)c1NC(=O)c1ccc(CSc2nnc(Cc3csc(N)n3)n2-c2ccccc2)cc1` [9c, 4-[({5-[(2-Amino-1,3-thiazol-4-yl)methyl]-4-phenyl-4H-1,2,4-triazol-3-yl}sulfanyl)methyl]-N-(2,6-dimethylphenyl)benzamide], the Ki is reported as 0.016 µM.

Biological target: tyrosinase
Experiment: not given
Conditions: tyrosinase inhibitor reported previously, Fig. 1; cited from earlier work

Going from `COc1cc(Cl)ccc1-n1c(SCC(=O)Nc2ccc(Br)cc2)nnc1-c1ccccc1` to `Cc1ccccc1NC(=O)CSc1nnc(Cc2csc(N)n2)n1-c1ccccc1`, the IC50 rises from 0.0048 ± 0.0016 µM to 0.0156 ± 0.0021 µM (3.2-fold). The first is the more potent here.

Going from `Nn1c(SCc2cc(=O)c(O)co2)nnc1-c1ccccc1Cl` to `COc1cccc(C(=O)NN2C(=O)c3ccccc3NC2c2ccc(Br)cc2)c1` (centres unmarked) [Quinazolinone Benzamide Derivatives], the IC50 falls from 5.35 ± 0.15 µM to 1.61 ± 0.324 µM (3.3-fold).

Compared with `Clc1ccc(-c2csc(N/N=C/c3ccc[nH]3)n2)cc1`, `O=C(/C=C/c1ccc(O)cc1)NC(=O)c1ccccc1` [N-acryloyl benzamide Derivatives] is 2.6-fold higher in IC50: 7.48 ± 0.19 µM for the first, 19.2 ± 1.14 µM for the second. The first is the more potent here.

Test system: RBCs (erythrocytes)
Experiment: Hemolytic activity
Format: cell-based
Conditions: bovine, erythrocyte (RBC) suspension, pH 7.4, 20 μL compound solution (10 mg mL^−1) in 180 μL RBCs suspension, room temperature, read-out: Hemolysis (%) (mean ± SEM)
Description: Bovine blood sample was collected in EDTA that was diluted with saline (0.9% NaCl), and centrifuge at 1000 × g for 10 min. The erythrocytes separated diluted in phosphate buffer saline of pH 7.4 and a suspension was made. Add 20 μL of synthetic compounds solution (10 mg mL^−1) in 180 μL of RBCs suspension and incubate for 30 min at room temperature. PBS was used as negative control and Triton 100-X was taken as positive control.[43,44] The percentage of hemolysis was taken as by using formula: [drawing 24]

Going from `Cc1ccc(NC(=O)c2ccc(CSc3nnc(Cc4csc(N)n4)n3-c3ccccc3)cc2)c(C)c1` [9a, 4-[({5-[(2-Amino-1,3-thiazol-4-yl)methyl]-4-phenyl-4H-1,2,4-triazol-3-yl}sulfanyl)methyl]-N-(2,4-dimethylphenyl)benzamide] to `Cc1ccc(C)c(NC(=O)c2ccc(CSc3nnc(Cc4csc(N)n4)n3-c3ccccc3)cc2)c1` [9b, 4-[({5-[(2-Amino-1,3-thiazol-4-yl)methyl]-4-phenyl-4H-1,2,4-triazol-3-yl}sulfanyl)methyl]-N-(2,5-dimethylphenyl)benzamide], the hemolysis at 30 min, 1 mg/mL rises from 6.47 ± 0.02% to 11.76 ± 0.03%.

Compared with `Cc1cccc(C)c1NC(=O)c1ccc(CSc2nnc(Cc3csc(N)n3)n2-c2ccccc2)cc1` [9c, 4-[({5-[(2-Amino-1,3-thiazol-4-yl)methyl]-4-phenyl-4H-1,2,4-triazol-3-yl}sulfanyl)methyl]-N-(2,6-dimethylphenyl)benzamide], `Cc1ccc(NC(=O)c2ccc(CSc3nnc(Cc4csc(N)n4)n3-c3ccccc3)cc2)cc1C` [9d, 4-[({5-[(2-Amino-1,3-thiazol-4-yl)methyl]-4-phenyl-4H-1,2,4-triazol-3-yl}sulfanyl)methyl]-N-(3,4-dimethylphenyl)benzamide] is lower in hemolysis at 30 min, 1 mg/mL: 9.41 ± 0.02% for the first, 8.82 ± 0.04% for the second.

First: Cc1cc(C)cc(NC(=O)c2ccc(CSc3nnc(Cc4csc(N)n4)n3-c3ccccc3)cc2)c1 [9e, 4-[({5-[(2-Amino-1,3-thiazol-4-yl)methyl]-4-phenyl-4H-1,2,4-triazol-3-yl}sulfanyl)methyl]-N-(3,5-dimethylphenyl)benzamide]
Second: Cc1cccc(NC(=O)c2ccc(CSc3nnc(Cc4csc(N)n4)n3-c3ccccc3)cc2)c1 [9g, 4-[({5-[(2-Amino-1,3-thiazol-4-yl)methyl]-4-phenyl-4H-1,2,4-triazol-3-yl}sulfanyl)methyl]-N-(3-methylphenyl)benzamide]
The hemolysis at 30 min, 1 mg/mL of the first is lower: 6.47 ± 0.02% for the first, 6.52 ± 0.02% for the second.

Compared with `Cc1ccccc1NC(=O)c1ccc(CSc2nnc(Cc3csc(N)n3)n2-c2ccccc2)cc1` [9f, 4-[({5-[(2-Amino-1,3-thiazol-4-yl)methyl]-4-phenyl-4H-1,2,4-triazol-3-yl}sulfanyl)methyl]-N-(2-methylphenyl)benzamide], `CCc1ccccc1NC(=O)c1ccc(CSc2nnc(Cc3csc(N)n3)n2-c2ccccc2)cc1` [9i, 4-[({5-[(2-Amino-1,3-thiazol-4-yl)methyl]-4-phenyl-4H-1,2,4-triazol-3-yl}sulfanyl)methyl]-N-(2-ethylphenyl)benzamide] is lower in hemolysis at 30 min, 1 mg/mL: 12.94 ± 0.03% for the first, 9.41 ± 0.05% for the second.

First: Cc1ccc(NC(=O)c2ccc(CSc3nnc(Cc4csc(N)n4)n3-c3ccccc3)cc2)cc1 [9h, 4-[({5-[(2-Amino-1,3-thiazol-4-yl)methyl]-4-phenyl-4H-1,2,4-triazol-3-yl}sulfanyl)methyl]-N-(4-dimethylphenyl)benzamide]
Second: CCc1ccc(NC(=O)c2ccc(CSc3nnc(Cc4csc(N)n4)n3-c3ccccc3)cc2)cc1 [9j, 4-[({5-[(2-Amino-1,3-thiazol-4-yl)methyl]-4-phenyl-4H-1,2,4-triazol-3-yl}sulfanyl)methyl]-N-(4-ethylphenyl)benzamide]
The hemolysis at 30 min, 1 mg/mL of the first is lower: 2.64 ± 0.04% for the first, 8.52 ± 0.05% for the second.

Going from `CCOc1cccc(NC(=O)c2ccc(CSc3nnc(Cc4csc(N)n4)n3-c3ccccc3)cc2)c1` [9k, 4-[({5-[(2-Amino-1,3-thiazol-4-yl)methyl]-4-phenyl-4H-1,2,4-triazol-3-yl}sulfanyl)methyl]-N-(3-ethoxyphenyl)benzamide] to `CC(C)(C)CC(C)(C)c1ccc(OCCO)cc1` [Triton X, reference compound], the hemolysis at 30 min, 1 mg/mL rises from 10.35 ± 0.03% to 94.11 ± 0.01%.
